Test results reported in US8785462B2, “5-hydroxypyrimidine-4-carboxamide derivative” (Daiichi Sankyo Company, Limited, priority 2009, dated 2014).

Tested on: human liver cancer-derived cell line Hep3B
Test: In vitro erythropoietin (EPO) induction activity in Hep3B cells (human EPO ELISA of culture supernatant)
Type: cell-based
Conditions: test compound 12.5 μM, Hep3B cells cultured 24 hours at 37° C., multiple of the EPO concentration in the control (0.5% DMSO = 1)
Protocol: In vitro erythropoietin (EPO) induction activity of test compounds was evaluated using human liver cancer-derived cell line Hep3B (ATCC, Manassas, Va.). Hep3B cells were cultured overnight at 37° C. in Dulbecco's modified Eagle's medium (DMEM) in the presence of 10% fetal bovine serum (FBS) (24-well plate, 1.0×10^5 cells/well). After replacing with fresh DMEM (+10% FBS) containing a test compound dissolved in 0.5% dimethyl sulfoxide (DMSO) (prepared to a concentration of 12.5 μM) or a solvent control (0.5% DMSO), the cells were cultured for 24 hours at 37° C. After recovering the culture supernatant, EPO concentration in the culture supernatant was quantified using a human EPO ELISA kit (StemCell Technologies).
The EPO concentration in the case of using a compound of each example as a test compound was expressed as a multiple of the EPO concentration in the control.

`Cc1cc(-c2ccc(N3CCC(Cc4nc(C)c(O)c(C(=O)NCC(=O)O)n4)CC3)cc2)ccc1CO` [Example 40, ({[5-Hydroxy-2-({1-[4′-(hydroxymethyl)-3′-methylbiphenyl-4-yl]piperidin-4-yl}methyl)-6-methylpyrimidin-4-yl]carbonyl}amino)acetic acid] was tested, and the fold induction at 12.5 µM was 25.
Molecule `Cc1nc(CC2CCN(c3ccc(-c4ccc(CO)c(F)c4)cc3)CC2)nc(C(=O)NCC(=O)O)c1O` [Example 37, ({[2-({1-[3′-Fluoro-4′-(hydroxymethyl)biphenyl-4-yl]piperidin-4-yl}methyl)-5-hydroxy-6-methylpyrimidin-4-yl]carbonyl}amino)acetic acid] has a fold induction at 12.5 µM of 31.
Molecule `Cc1nc(CC2CCN(c3ccc(-c4ccc(CC(C)O)cc4)cc3)CC2)nc(C(=O)NCC(=O)O)c1O` (stereo not drawn) [Example 5, ({[5-Hydroxy-2-{(1-[4′-(2-hydroxypropyl)biphenyl-4-yl]piperidin-4-yl}methyl)-6-methylpyrimidin-4-yl]carbonyl}amino)acetic acid] has a fold induction at 12.5 µM of 48.
`Cc1nc(CC2CCN(c3ccc(-c4ccc(C[C@@H](C)O)cc4)cc3)CC2)nc(C(=O)NCC(=O)O)c1O` [Example 46, [({5-Hydroxy-2-[(1-{4′-[(2R)-2-hydroxypropyl]biphenyl-4-yl}piperidin-4-yl)methyl]-6-methylpyrimidin-4-yl}carbonyl)amino]acetic acid] was tested, and the fold induction at 12.5 µM was 45.
Molecule `Cc1nc(CC2CCN(c3ccc(-c4ccc(CO)cc4)c(F)c3)CC2)nc(C(=O)NCC(=O)O)c1O` [Example 38, ({[2-({1-[2-Fluoro-4′-(hydroxymethyl)biphenyl-4-yl]piperidin-4-yl}methyl)-5-hydroxy-6-methylpyrimidin-4-yl]carbonyl}amino)acetic acid] has a fold induction at 12.5 µM of 24.
For `Cc1nc(CC2CCN(c3ccc(-c4cc(Cl)c(CO)c(Cl)c4)cc3)CC2)nc(C(=O)NCC(=O)O)c1O` [Example 42, ({[2-{(1-[3′,5′-Dichloro-4′-(hydroxymethyl)biphenyl-4-yl]piperidin-4-yl}methyl)-5-hydroxy-6-methylpyrimidin-4-yl]carbonyl}amino)acetic acid], the fold induction at 12.5 µM was 28.
`CC[C@H](O)Cc1ccc(-c2ccc(N3CCC(Cc4nc(C)c(O)c(C(=O)NCC(=O)O)n4)CC3)cc2)cc1` [Example 47, [({5-Hydroxy-2-[(1-{4′-[(2S)-2-hydroxybutyl]biphenyl-4-yl}piperidin-4-yl)methyl]-6-methylpyrimidin-4-yl}carbonyl)amino]acetic acid] showed a fold induction at 12.5 µM of 34.
In the case of `CCC(O)Cc1ccc(-c2ccc(N3CCC(Cc4nc(C)c(O)c(C(=O)NCC(=O)O)n4)CC3)cc2)cc1` (stereo not drawn) [Example 27, ({[5-Hydroxy-2-{(1-[4′-(2-hydroxybutyl)biphenyl-4-yl]piperidin-4-yl}methyl)-6-methylpyrimidin-4-yl]carbonyl}amino)acetic acid], the fold induction at 12.5 µM is reported as 30.
Molecule `CNC(=O)c1ccc(-c2ccc(N3CCC(Cc4nc(C)c(O)c(C(=O)NCC(=O)O)n4)CC3)cc2)cc1` [Example 8, ({[5-Hydroxy-6-methyl-2-{(1-[4′-(methylcarbamoyl)biphenyl-4-yl]piperidin-4-yl}methyl)pyrimidin-4-yl]carbonyl}amino)acetic acid] has a fold induction at 12.5 µM of 94.
`Cc1cc(CO)ccc1-c1ccc(N2CCC(Cc3nc(C)c(O)c(C(=O)NCC(=O)O)n3)CC2)cc1` [Example 25, ({[5-Hydroxy-2-{(1-[4′-(hydroxymethyl)-2′-methylbiphenyl-4-yl]piperidin-4-yl}methyl)-6-methylpyrimidin-4-yl]carbonyl}amino)acetic acid] gave a fold induction at 12.5 µM of 22.
`Cc1nc(CC2CCN(c3ccc(-c4ccc(CO)cc4)cc3)CC2)nc(C(=O)NCC(=O)O)c1O` [Example 1, ({[5-Hydroxy-2-{(1-[4′-(hydroxymethyl)biphenyl-4-yl]piperidin-4-yl}methyl)-6-methylpyrimidin-4-yl]carbonyl}amino)acetic acid] showed a fold induction at 12.5 µM of 55.
`COCc1ccc(-c2ccc(N3CCC(Cc4nc(C)c(O)c(C(=O)NCC(=O)O)n4)CC3)cc2)cc1` [Example 35, ({[5-Hydroxy-2-{(1-[4′-(methoxymethyl)biphenyl-4-yl]piperidin-4-yl}methyl)-6-methylpyrimidin-4-yl]carbonyl}amino)acetic acid] showed a fold induction at 12.5 µM of 53.
Work on `Cc1cc(-c2ccc(N3CCC(Cc4nc(C)c(O)c(C(=O)NCC(=O)O)n4)CC3)cc2C)ccc1CO` [Example 26, ({[5-Hydroxy-2-({1-[4′-(hydroxymethyl)-2,3′-dimethylbiphenyl-4-yl]piperidin-4-yl}methyl)-6-methylpyrimidin-4-yl]carbonyl}amino)acetic acid] yielded a fold induction at 12.5 µM of 13.
With `Cc1nc(CC2CCN(c3ccc(-c4ccc(CCO)cc4)cc3)CC2)nc(C(=O)NCC(=O)O)c1O` [Example 4, ({[5-Hydroxy-2-({1-[4′-(2-hydroxyethyl)biphenyl-4-yl]piperidin-4-yl}methyl)-6-methylpyrimidin-4-yl]carbonyl}amino)acetic acid] the fold induction at 12.5 µM was 73.
`COC[C@H](O)Cc1ccc(-c2ccc(N3CCC(Cc4nc(C)c(O)c(C(=O)NCC(=O)O)n4)CC3)cc2)cc1` [Example 49, [({5-Hydroxy-2-[(1-{4′-[(2R)-2-hydroxy-3-methoxypropyl]biphenyl-4-yl}piperidin-4-yl)methyl]-6-methylpyrimidin-4-yl}carbonyl)amino]acetic acid] showed a fold induction at 12.5 µM of 18.
In the case of `Cc1nc(CC2CCN(c3ccc(-c4ccc(CO)cc4F)cc3)CC2)nc(C(=O)NCC(=O)O)c1O` [Example 36, ({[2-{(1-[2′-Fluoro-4′-(hydroxymethyl)biphenyl-4-yl]piperidin-4-yl}methyl)-5-hydroxy-6-methylpyrimidin-4-yl]carbonyl}amino)acetic acid], the fold induction at 12.5 µM is reported as 25.
`Cc1nc(CC2CCN(c3ccc(-c4ccc(C(C)O)cc4)cc3)CC2)nc(C(=O)NCC(=O)O)c1O` (stereo not drawn) [Example 3, ({[5-Hydroxy-2-{(1-[4′-(1-hydroxyethyl)biphenyl-4-yl]piperidin-4-yl}methyl)-6-methylpyrimidin-4-yl]carbonyl}amino)acetic acid] was tested, and the fold induction at 12.5 µM was 24.
Work on `COC[C@@H](O)Cc1ccc(-c2ccc(N3CCC(Cc4nc(C)c(O)c(C(=O)NCC(=O)O)n4)CC3)cc2)cc1` [Example 50, [({5-Hydroxy-2-[(1-{4′-[(2S)-2-hydroxy-3-methoxypropyl]biphenyl-4-yl}piperidin-4-yl)methyl]-6-methylpyrimidin-4-yl}carbonyl)amino]acetic acid] yielded a fold induction at 12.5 µM of 23.
`CC[C@@H](O)Cc1ccc(-c2ccc(N3CCC(Cc4nc(C)c(O)c(C(=O)NCC(=O)O)n4)CC3)cc2)cc1` [Example 48, [({5-Hydroxy-2-[(1-{4′-[(2R)-2-hydroxybutyl]biphenyl-4-yl}piperidin-4-yl)methyl]-6-methylpyrimidin-4-yl}carbonyl)amino]acetic acid] showed a fold induction at 12.5 µM of 42.
`Cc1nc(CC2CCN(c3ccc(-c4ccc(CO)c(Cl)c4)cc3)CC2)nc(C(=O)NCC(=O)O)c1O` [Example 24, ({[2-{(1-[3′-Chloro-4′-(hydroxymethyl)biphenyl-4-yl]piperidin-4-yl}methyl)-5-hydroxy-6-methylpyrimidin-4-yl]carbonyl}amino)acetic acid] showed a fold induction at 12.5 µM of 30.
With `Cc1nc(CC2CCN(c3ccc(-c4ccc(C(=O)N(C)C)cc4)cc3)CC2)nc(C(=O)NCC(=O)O)c1O` [Example 7, ({[2-{(1-[4′-(Dimethylcarbamoyl)biphenyl-4-yl]piperidin-4-yl}methyl)-5-hydroxy-6-methylpyrimidin-4-yl]carbonyl}amino)acetic acid] the fold induction at 12.5 µM was 50.
`Cc1nc(CC2CCN(c3ccc(-c4ccc(CC(=O)N(C)C)cc4)cc3)CC2)nc(C(=O)NCC(=O)O)c1O` [Example 9, [({2-[(1-{4′-[2-(Dimethylamino)-2-oxoethyl]biphenyl-4-yl}piperidin-4-yl)methyl]-5-hydroxy-6-methylpyrimidin-4-yl}carbonyl)amino]acetic acid] was tested, and the fold induction at 12.5 µM was 36.
`CCOC(=O)c1ccc(-c2ccc(N3CCC(Cc4nc(C)c(O)c(C(=O)NCC(=O)O)n4)CC3)cc2)nc1` [Example 16, [({2-[(1-{4-[5-(Ethoxycarbonyl)pyridin-2-yl]phenyl}piperidin-4-yl)methyl]-5-hydroxy-6-methylpyrimidin-4-yl}carbonyl)amino]acetic acid] gave a fold induction at 12.5 µM of 47.
`Cc1nc(CC2CCN(c3ccc(-c4cc(F)c(CO)c(F)c4)cc3)CC2)nc(C(=O)NCC(=O)O)c1O` [Example 41, ({[2-({1-[3′,5′-Difluoro-4′-(hydroxymethyl)biphenyl-4-yl]piperidin-4-yl}methyl)-5-hydroxy-6-methylpyrimidin-4-yl]carbonyl}amino)acetic acid] gave a fold induction at 12.5 µM of 20.
In the case of `[2H]C([2H])(O)c1ccc(-c2ccc(N3CCC(Cc4nc(C)c(O)c(C(=O)NCC(=O)O)n4)CC3)cc2)cc1` [Example 44, ({[5-Hydroxy-2-{(1-[4′-(hydroxymethyl)biphenyl-4-yl]piperidin-4-yl}methyl)-6-methylpyrimidin-4-yl]carbonyl}amino)acetic acid-d2], the fold induction at 12.5 µM is reported as 26.
Molecule `Cc1nc(CC2CCN(c3ccc(-c4ccc(C[C@H](C)O)cc4)cc3)CC2)nc(C(=O)NCC(=O)O)c1O` [Example 45, [({5-Hydroxy-2-[(1-{4′-[(2S)-2-hydroxypropyl]biphenyl-4-yl}piperidin-4-yl)methyl]-6-methylpyrimidin-4-yl}carbonyl)amino]acetic acid] has a fold induction at 12.5 µM of 41.
`Cc1nc(CC2CCN(c3ccc(-c4ccc(C(F)(F)CO)cc4)cc3)CC2)nc(C(=O)NCC(=O)O)c1O` [Example 30, ({[2-{(1-[4′-(1,1-Difluoro-2-hydroxyethyl)biphenyl-4-yl]piperidin-4-yl}methyl)-5-hydroxy-6-methylpyrimidin-4-yl]carbonyl}amino)acetic acid] was tested, and the fold induction at 12.5 µM was 23.
